Source: US20230382894A1, “CCR4 ANTAGONISTS” (CHEMOCENTRYX, INC., priority 2022, published 2023)

Assays:
CCR4 [1] = target: T1, CCR4 (Homo sapiens, UniProt P51679); experiment: CEM cell chemotaxis (migration) assay to CCL22 (MDC) in HBSS buffer with 0.1% BSA; assay type: cell-based; conditions: CEM cells in HBSS with 0.1% BSA; recombinant human CCL22 0.1 nM; 37° C. 60 minutes
T1 construct: CEM Cells Endogenous Express CCR4; endogenous in cells; host or cells: CEM cells
T1 sequence (P51679 1-360): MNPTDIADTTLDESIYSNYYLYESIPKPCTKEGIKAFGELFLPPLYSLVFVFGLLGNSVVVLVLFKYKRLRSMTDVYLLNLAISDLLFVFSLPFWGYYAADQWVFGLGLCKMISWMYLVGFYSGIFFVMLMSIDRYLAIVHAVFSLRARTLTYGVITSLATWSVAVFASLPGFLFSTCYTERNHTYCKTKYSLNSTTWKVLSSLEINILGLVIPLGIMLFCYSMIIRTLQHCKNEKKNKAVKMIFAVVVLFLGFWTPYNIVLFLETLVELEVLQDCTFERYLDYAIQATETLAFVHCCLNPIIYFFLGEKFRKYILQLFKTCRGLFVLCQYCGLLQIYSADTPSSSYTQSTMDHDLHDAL
Source text: CEM Cells Endogenous Express CCR4
A chemotaxis assay can be used to determine the efficacy of potential receptor antagonists at blocking the migration mediated through chemokine receptors, such as CCR4. This assay is routinely performed using the ChemoTX® microchamber system with a 5 μm pore-sized polycarbonate membrane.
HBSS: CEM Cells are collected by centrifugation at 400×g at room temperature, then suspended at 5 million/ml in Hanks' Balanced Salt Solution (HBSS) buffer with 0.1% BSA. The compound being tested is serially diluted from a maximum final concentration of 10 μM (or an equivalent volume of its solvent (DMSO)) and is then added to the cell/buffer mixture. Separately, recombinant human CCL22 (MDC) at its EC50 concentration (0.1 nM) is placed in the lower wells of the ChemoTX® plate. The 5-μm (pore size) polycarbonate membrane was placed onto the plate, and 20 μL of the cell/compound mixture is transferred onto each well of the membrane. The plates are incubated at 37° C. for 60 minutes, after which the polycarbonate membranes are removed and 5 μl of the DNA-intercalating dye CyQUANT (Invitrogen, Carlsbad, CA) is added to the lower wells. The amount of fluorescence, corresponding to the number of migrated cells, is measured using a Spectrafluor Plus plate reader (TECAN, San Jose, CA).

CCR4 [2] = target: T1, CCR4; experiment: CEM cell chemotaxis (migration) assay to CCL22 (MDC) in 100% Fetal Bovine Serum (FBS); assay type: cell-based; conditions: CEM cells in 100% FBS with 1% HEPEs; recombinant human CCL22 0.1 nM; 37° C. 60 minutes
Summary of the method: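 Endogenously CCR4-expressing CEM cells in 100% FBS with 1% HEPES were preincubated with serially diluted compound (top final 10 μM) and allowed to migrate through 5 μm polycarbonate membranes toward 0.1 nM human CCL22 (EC50) for 60 min at 37 °C. Migrated cells were quantified by CyQUANT fluorescence.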

| SMILES | IC50 (CCR4 [1]) | IC50 (CCR4 [2]) |
| --- | --- | --- |
| C[C@@H](Nc1nc(N2CCC(CO)(NC(=O)[C@H]3CCCN3)CC2)ncc1Cl)c1ccc(Cl)cc1Cl [Example 1.003] | < 100 nM | < 100 nM |
| C[C@@H](Nc1nc(N2CCN(C(=O)[C@H]3CCCN3)CC2)ncc1Cl)c1ccc(Cl)cc1F [Example 1.004] | < 100 nM | < 100 nM |
| CNC1CCN(C(=O)N2CCN(c3ncc(Cl)c(N[C@H](C)c4ccc(Cl)cc4Cl)n3)CC2)C1 (stereo partly shown) [Example 1.005] | < 100 nM | < 100 nM |
| C[C@@H](Nc1ncc(C(F)(F)F)c(N2CCN(C(=O)[C@H]3CCCN3)CC2)n1)c1ccc(Cl)cc1Cl [Example 1.006] | < 100 nM | < 100 nM |
| C[C@@H](Nc1nc(N2CCN(C(=O)[C@H]3CCCN3)CC2)ncc1C(F)(F)F)c1ccc(Cl)cc1Cl [Example 1.007] | < 100 nM | < 100 nM |
| C[C@@H](Nc1nc(N2CCC(N(C)C(=O)[C@H]3CCCN3)CC2)ncc1Cl)c1ccc(Cl)cc1Cl [Example 1.008] | < 100 nM | < 100 nM |
| C[C@@H](Nc1nc(N2CCC(NC(=O)C3CCN(C)C3)CC2)ncc1Cl)c1ccc(Cl)cc1Cl (stereo partly shown) [Example 1.009] | < 100 nM | < 100 nM |
| C[C@@H](Nc1nc(N2CCN(C(=O)CCN(C)C)CC2)ncc1Cl)c1ccc(Cl)cc1Cl [Example 1.010] | < 100 nM | < 100 nM |
| C[C@@H](Nc1nc(N2CCN(C(=O)[C@H]3CCCN3)[C@@H](C)C2)ncc1Cl)c1ccc(Cl)cc1Cl [Example 1.011] | < 100 nM | < 100 nM |
| C[C@@H](Nc1nc(N2CC[C@H](NC(=O)[C@H]3CCCN3)[C@@H](O)C2)ncc1Cl)c1ccc(Cl)cc1Cl [Example 1.012] | < 100 nM | < 100 nM |
| C[C@@H](Nc1nc(N2CC[C@@H](NC(=O)[C@H]3CCCN3)[C@H](O)C2)ncc1Cl)c1ccc(Cl)cc1Cl [Example 1.013] | < 100 nM | < 100 nM |
| C[C@@H](Nc1nc(N2CC[C@H](NC(=O)[C@H]3CCCN3)[C@H](O)C2)ncc1Cl)c1ccc(Cl)cc1Cl [Example 1.014] | < 100 nM | < 100 nM |
| C[C@@H](Nc1nc(N2CC[C@@H](NC(=O)[C@H]3CCCN3)C2)ncc1Cl)c1ccc(Cl)cc1Cl [Example 1.015] | < 100 nM | < 100 nM |
| C[C@@H](Nc1nc(N2CCN(S(=O)(=O)CCN(C)C)CC2)ncc1Cl)c1ccc(Cl)cc1Cl [Example 1.016] | < 100 nM | 100 to 1000 nM |
| C[C@@H]1CN(c2ncc(Cl)c(N[C@H](C)c3ccc(Cl)cc3Cl)n2)[C@@H](C)CN1C1CCCN(CCC(=O)O)C1 (stereo partly shown) [Example 1.017] | < 100 nM | < 100 nM |
| C[C@@H]1CN(c2ncc(Cl)c(N[C@H](C)c3ccc(Cl)cc3Cl)n2)CCN1C(=O)c1c[nH]c(=O)n(C)c1=O [Example 1.018] | > 1000 nM | > 1000 nM |

| SMILES | IC50 (CCR4 [1]) | IC50 (CCR4 [2]) |
| --- | --- | --- |
| C[C@@H]1CN(c2ncc(Cl)c(N[C@H](C)c3ccc(Cl)cc3Cl)n2)[C@@H](C)CN1C(=O)[C@H]1CCCN1CC(=O)O [Example 1.019] | 100 to 1000 nM | 100 to 1000 nM |
| C[C@@H](Nc1nc(C2=CCN(C(=O)CN(C)C)CC2)ncc1Cl)c1ccc(Cl)cc1Cl [Example 1.020] | < 100 nM | < 100 nM |
| C[C@@H](Nc1nc(N2CCC(C3CNC3)CC2)ncc1Cl)c1ccc(Cl)cc1Cl [Example 1.021] | < 100 nM | < 100 nM |
| C[C@@H](Nc1nc(N2CCN(C(=O)C3CCN(C)C3)CC2)ncc1Cl)c1ccc(Cl)cc1Cl (stereo partly shown) [Example 1.022] | < 100 nM | < 100 nM |
| C[C@@H](Nc1nc(N2CCN(C(=O)[C@H]3C[C@H](O)CN3)CC2)ncc1Cl)c1ccc(Cl)cc1Cl [Example 1.023] | < 100 nM | < 100 nM |
| C[C@@H](Nc1nc(N2CCN(C(=O)[C@H]3CCCN3C)CC2)ncc1Cl)c1ccc(Cl)cc1Cl [Example 1.024] | < 100 nM | < 100 nM |
| C[C@@H](Nc1nc(N2CCC(C(=O)N(C)CCN(C)C)CC2)ncc1Cl)c1ccc(Cl)cc1Cl [Example 1.025] | < 100 nM | < 100 nM |
| C[C@@H](Nc1nc(N2CCC(C(=O)NCCN(C)C)CC2)ncc1Cl)c1ccc(Cl)cc1Cl [Example 1.026] | < 100 nM | < 100 nM |
| C[C@@H](Nc1nc(C2=CCN(C(=O)[C@H]3CCCN3)CC2)ncc1Cl)c1ccc(Cl)cc1Cl [Example 1.027] | < 100 nM | < 100 nM |
| C[C@@H](Nc1nc(N2CC[C@@H](NC(=O)[C@H]3CCCN3)[C@@H](O)C2)ncc1Cl)c1ccc(Cl)cc1Cl [Example 1.028] | < 100 nM | < 100 nM |
| C[C@@H](Nc1nc(N2CC[C@H](NC(=O)[C@H]3CCCN3)C2)ncc1Cl)c1ccc(Cl)cc1Cl [Example 1.029] | < 100 nM | < 100 nM |
| C[C@@H](Nc1nc(N2CCN(C(=O)[C@H]3CCCN3)C(C)(C)C2)ncc1Cl)c1ccc(Cl)cc1Cl [Example 1.030] | > 1000 nM | 100 to 1000 nM |
| C[C@@H](Nc1nc(N2CC3CC2CN3C(=O)[C@H]2CCCN2)ncc1Cl)c1ccc(Cl)cc1Cl (stereo partly shown) [Example 1.031] | 100 to 1000 nM | 100 to 1000 nM |
| C[C@@H](Nc1nc(N2CCN(C(=O)C[C@H]3CCCN3)CC2)ncc1Cl)c1ccc(Cl)cc1Cl [Example 1.032] | < 100 nM | < 100 nM |
| C[C@@H](Nc1nc(N2CCN(C(=O)[C@H]3CCN3)CC2)ncc1Cl)c1ccc(Cl)cc1Cl [Example 1.033] | < 100 nM | < 100 nM |

More lines, now with the values ahead:

| IC50 (CCR4 [1]) | IC50 (CCR4 [2]) | SMILES |
| --- | --- | --- |
| < 100 nM | < 100 nM | C[C@@H]1CN(c2ncc(Cl)c(N[C@H](C)c3ccc(Cl)cc3Cl)n2)[C@@H](C)CN1C(=O)[C@H]1CCCN1 [Example 1.034] |
| < 100 nM | < 100 nM | C[C@@H](Nc1nc(N2CCC(C3CCCN(CCC(=O)O)C3)CC2)ncc1Cl)c1ccc(Cl)cc1Cl (stereo partly shown) [Example 1.035] |
| > 1000 nM | > 1000 nM | C[C@@H]1CN(c2ncc(Cl)c(N[C@H](C)c3ccc(Cl)cc3Cl)n2)CCN1C(=O)N1CCNCC1 [Example 1.036] |
| 100 to 1000 nM | 100 to 1000 nM | C[C@@H](Nc1nc(N2CCN(C(=O)C3(C)CNC3)CC2)ncc1Cl)c1ccc(Cl)cc1Cl [Example 1.037] |
| < 100 nM | < 100 nM | C[C@@H]1CN(C(=O)[C@H]2CCCN2)CCN1c1ncc(Cl)c(N[C@H](C)c2ccc(Cl)cc2Cl)n1 [Example 1.038] |
| < 100 nM | < 100 nM | C[C@@H](Nc1nc(N2CCC(NC(=O)[C@H]3CCCN3)CC2)ncc1Cl)c1ccc(Cl)cc1Cl [Example 1.039] |
| < 100 nM | < 100 nM | C[C@@H](Nc1nc(N2CCN(C(=O)C(C)(C)N)CC2)ncc1Cl)c1ccc(Cl)cc1Cl [Example 1.040] |
| < 100 nM | < 100 nM | C[C@@H](Nc1nc(N2CCN(C(=O)CN(C)C)CC2)ncc1Cl)c1ccc(Cl)cc1Cl [Example 1.041] |
| < 100 nM | < 100 nM | C[C@@H]1CN(c2ncc(Cl)c(N[C@H](C)c3ccc(Cl)cc3Cl)n2)CCN1C(=O)[C@H]1CCCN1 [Example 1.042] |
| < 100 nM | < 100 nM | Cc1nc(N2CCN(C(=O)[C@H]3CCCN3)[C@H](CO)C2)nc(N[C@H](C)c2ccc(Cl)cc2Cl)c1Cl [Example 1.043] |
| < 100 nM | < 100 nM | C[C@@H](Nc1nc(N2CCN(C(=O)[C@H]3CCCCN3)CC2)ncc1Cl)c1ccc(Cl)cc1Cl [Example 1.044] |
| < 100 nM | < 100 nM | C[C@@H](Nc1nc(N2CCC(C3CCCNC3)CC2)ncc1Cl)c1ccc(Cl)cc1Cl (stereo partly shown) [Example 1.045] |
|  | < 100 nM | C[C@@H]1CC[C@H](C(=O)N[C@H]2CCN(c3ncc(Cl)c(N[C@H](C)c4ccc(Cl)cc4Cl)n3)C[C@@H]2O)N1 [Example 1.248] |
| < 100 nM |  | C[C@@H](Nc1nc(N2CCN(C(=O)[C@H]3CCC(=O)N3)CC2)ncc1Cl)c1c(F)cc(Cl)cc1Cl [Example 1.250] |
|  | < 100 nM | C[C@H](Nc1nc(N2CCN(C(=O)[C@H]3CCC(=O)N3)CC2)ncc1Cl)c1ncc(Cl)cc1Cl [Example 1.255] |
|  | < 100 nM | Cc1nc(N2CCN(C(=O)[C@H]3CCC(=O)N3)CC2)nc(N[C@H](C)c2c(F)cc(Cl)cc2Cl)c1Cl [Example 1.260] |
|  | < 100 nM | C[C@@H](Nc1nc(N2CCN(C(=O)[C@H]3CCC(=O)N3)CC2)nc(C(F)(F)F)c1Cl)c1ccc(Cl)cc1Cl [Example 1.261] |
